Test results published in publication PMC10654507, “A cleavable chimeric peptide with targeting and killing domains enhances LPS neutralization and antibacterial properties against multi-drug resistant E. coli” (Communications Biology, 2023).
≈ marks a conversion by molar mass, not a printed value. Like-named read-outs stand apart in the source and are kept apart here. Residues, ends and D or L forms follow the SMILES beside them.

Legend:
Escherichia coli CVCC195 = assay type: cell-based; details: repeated three times; for MBC: lowest concentration giving 99.9% reduction of the inoculum; for MIC: microtiter broth dilution, 10^5 CFU/mL, 37 °C, 16 ~ 18 h
Protocol: (§1) The minimum inhibitory concentration (MIC) and minimum bactericidal concentration (MBC) of peptides were determined by the microtiter broth dilution method according to Clinical and Laboratory Standards Institute (CLSI) guidelines. […] PBS was used as the negative control. […] The MBC value was calculated as the lowest concentration of peptides resulting in a 99.9% reduction of the original inoculum. All experiments were repeated three times.

[1] = tested on: Staphylococcus aureus ATCC43300; assay type: cell-based; details: repeated three times; for MBC: lowest concentration giving 99.9% reduction of the inoculum; for MIC: microtiter broth dilution, 10^5 CFU/mL, 37 °C, 16 ~ 18 h
Protocol: as §1

mouse red blood cells = assay: Hemolytic activity; assay type: cell-based
Protocol: Blood was collected from the eyeballs of specific pathogen-free (SPF) ICR female mice (6-week-old) with an anticoagulant tube and centrifuged for 10 min (4 °C, 1500 rpm). After washing twice with 0.9% physiological saline, red blood cells were diluted to 8% suspension and added into the Eppendorf tube (100 μL); 2-fold peptide solutions dissolved in 0.9% physiological saline (100 μL) were then added into the tube, incubated at 37 °C for 1 h, and centrifugated at 4 °C for 5 min. The supernatant was pipetted into a 96-well plate and the UV absorbance was measured at 540 nm using a microplate reader. 0.1% Triton X-100 and physiological saline were used as positive and negative control, respectively. The hemolysis rate is calculated as follows: Hemolysis (%) = [(Abspeptide-Abssaline) / (Abs0.1% Triton X-100- Abssaline)] × 100[13].

MDR E. coli CVCC195 = assay: Intestinal alkaline phosphatase (IAP) activity in duodenum, E. coli-challenged mice; assay type: in vivo, mouse; details: for IAP levels in mice: Fig. 5g source data, peptide + E. coli, mean; for IAP activity: duodenum, 12 h after E. coli infection, mice pre-treated with 7 μmol/kg peptide, ELISA
Protocol: (§2) After E. coli or LPS challenge, the mice were sacrificed at 12 h and 24 h, respectively, and the sera were collected to detect inflammatory cytokines (such as tumor necrosis factor-α (TNF-α), interleukin-6 (IL-6), interleukin-1β (IL-1β), and interleukin-10 (IL-10)) using the enzyme linked immunosorbent assay (ELISA) kits. To evaluate the specific activity of intestinal alkaline phosphatase (IAP), a 2 cm segment of duodenum was rapidly intercepted from the mice and homogenized; the IAP levels in the supernatant were detected by ELISA. In addition, the lungs were collected from the mice infected by E. coli after 12 and 24 h, respectively and were homogenized in sterile PBS for the bacterial counts assay.

LPS [2] = assay: Serum cytokines (TNF-α, IL-6, IL-1β, IL-10; ELISA) in LPS-challenged mice; assay type: in vivo, mouse; details: LPS-challenged mice pre-treated with 7 μmol/kg, range over sampling times (12 h, 24 h)
Protocol: as §2

LPS [3] = assay: Intestinal alkaline phosphatase (IAP) activity in duodenum, LPS-challenged mice; assay type: in vivo, mouse; set-up: IAP levels in mice: unit not given beside the values; details: for IAP levels in mice: Fig. 7f source data, peptide + LPS, mean
Protocol: as §2

[4] = tested on: p65, p-p65, ERK1/2, p-ERK1/2 and IκBα; assay: Western blotting of NF-κB and MAPK pathway proteins in lung tissues of LPS-challenged mice; assay type: in vivo, mouse; details: for IκBα/β-actin ratio / p-ERK1/2/ERK1/2 ratio / p-p65/p65 ratio: Supplementary Fig. 5b-d source data, lung tissues, peptide + LPS, mean; for ERK1/2 phosphorylation: lung tissues of 24 h, western blot
Protocol: Additionally, the lung tissues of 24 h were homogenized and suspended in […] buffer, and the protein levels of supernatants were quantified using a Bradford protein assay kit. A total of 30 μg proteins were analyzed on a sodium dodecyl sulfate-polyacrylamide gel electrophoresis gel and were immunoblotted onto PVDF membranes, followed by an incubation with the primary antibodies of p65, p-p65, extracellular signal-regulated kinase (ERK)1/2, p-ERK1/2 and IκBα overnight at 4 °C. After washing, the blots were incubated with the peroxidase conjugated goat-rabbit or goat-mouse antibodies. Relative protein expression levels were quantified by a densitometric measurement of chemiluminescence (ECL) reaction band. β-actin was used as the internal reference. […]
pathways in lung tissues.
LPS. a The protein levels of p65, p-p65, ERK1/2, p-ERK1/2, and IκBα in lungs were analyzed by western blotting. b Densitometric analysis of p-ERK1/2/ERK1/2 ratio. c. Densitometric analysis of p-p65/p65 ratio. d Densitometric analysis of IκBα/β-actin ratio. All data were analyzed with one-way ANOVA, and data are means ± SD (n = 3). p-values< 0.05 were considered significant. **, p < 0.01, […]
(1 picture or pasted object on this page, not shown here)

MDR E. coli = assay type: in vivo, mouse; set-up: key to therapeutic efficacy, survival, single-animal event: 1 represents a mouse death; 0 represents no death; details: for therapeutic efficacy, survival, single-animal event: Supplementary Fig. 3a source data, MDR E. coli challenge, one cell per mouse
Protocol: (§3) Supplementary Figure 3. Therapeutic eﬀicacy of cleavable chimeric peptide R7 in the mice
(§4) challenged with MDR E. coli or LPS After the intraperitoneal injection with MDR E. coli (a) or LPS
(§5) (b) at a concentration of LD100, the mice were treated with 7 μmol/kg R7 at 0.5 h and 8 h, respectively.
(§6) The mouse survival was recorded for 7 d. The mice injected with MDR E. coli/LPS or saline were used

LPS [5] = assay type: in vivo, mouse; set-up: key: 1 represents a mouse death; 0 represents no death; details: Supplementary Fig. 3b source data, LPS challenge
Protocol: as §3, §4, §5, §6

[6] = concentration 1 μg/ml (as headed), 37 °C, 1 h, absorbance 540 nm, 0.1% Triton X-100 = 100, mean, n = 3
[7] = concentration 2 μg/ml (as headed), 37 °C, 1 h, absorbance 540 nm, mean, n = 3
[8] = concentration 4 μg/ml (as headed), 37 °C, 1 h, absorbance 540 nm, mean, n = 3
[9] = concentration 8 μg/ml (as headed), 37 °C, 1 h, absorbance 540 nm, mean, n = 3
[10] = concentration 16 μg/ml (as headed), 37 °C, 1 h, absorbance 540 nm, mean, n = 3
[11] = concentration 32 μg/ml (as headed), 37 °C, 1 h, absorbance 540 nm, mean, n = 3
[12] = concentration 64 μg/ml (as headed), 37 °C, 1 h, absorbance 540 nm, mean, n = 3
[13] = concentration 128 μg/ml (as headed), 37 °C, 1 h, absorbance 540 nm, mean, n = 3
[14] = event at day 2, one cell per mouse
[15] = event at day 3, one cell per mouse
[16] = event at day 7, one cell per entry

Row | SMILES | MBC (Escherichia coli CVCC195) [µM] | MIC (Escherichia coli CVCC195) [µM] | MBC [1] [µM] | MIC [1] [µM] | Hemolysis (mouse red blood cells; [6]) [%] | Hemolysis (mouse red blood cells; [7]) [%] | Hemolysis (mouse red blood cells; [8]) [%] | Hemolysis (mouse red blood cells; [9]) [%] | Hemolysis (mouse red blood cells; [10]) [%] | Hemolysis (mouse red blood cells; [11]) [%] | Hemolysis (mouse red blood cells; [12]) [%] | Hemolysis (mouse red blood cells; [13]) [%] | Hemolysis (mouse red blood cells; low concentration (0 ~ 32 μM)) | IAP levels in mice (MDR E. coli CVCC195; 12 h) | IAP levels in mice (MDR E. coli CVCC195; 24 h) | IAP activity (MDR E. coli CVCC195) [U/g] | serum IL-1β concentration (LPS [2]) | serum IL-6 concentration (LPS [2]) | serum IL-10 concentration (LPS [2]) | serum TNF-α concentration (LPS [2]) | further results
1 | CSCC[C@H](NC(=O)[C@H](CCCNC(=N)N)NC(=O)[C@H](Cc1c[nH]c2ccccc12)NC(=O)[C@H](C)NC(=O)[C@H](Cc1c[nH]c2ccccc12)NC(=O)[C@H](CCCNC(=N)N)NC(=O)[C@H](Cc1c[nH]c2ccccc12)NC(=O)[C@H](C)NC(=O)[C@H](CCCCN)NC(=O)[C@@H](N)Cc1ccccc1)C(=O)N[C@@H](CCCCN)C(=O)N[C@@H](CCCCN)C(=O)N[C@@H](CC(C)C)C(=O)N[C@@H](C)C(=O)N[C@@H](C)C(=O)N1CCC[C@H]1C(=O)N[C@@H](CO)C(=O)O [L7] (H-FKAWRWAWRMKKLAAPS-OH) | 4.53 (≈ 9.67 µg/mL) | 2.26 (≈ 4.82 µg/mL) | 18.1 (≈ 38.6 µg/mL) | 18.1 (≈ 38.6 µg/mL) | -0.1237 | 0.165 | -0.1856 | -0.6393 | 0.04126 | -0.3506 | -0.6805 | -1.031 | no hemolysis | 646.785 | 420.095 | 646.8 | 24.6 ~ 26.1 pg/mL | 113.2 ~ 120.2 pg/mL | 11.5 ~ 12.0 pg/mL | 56.4 ~ 68.0 pg/mL | hemolysis against mouse red blood cells (mouse red blood cells; 128 μM): 0%; IAP levels in mice (LPS [3]; 12 h): 684.97; IAP levels in mice (LPS [3]; 24 h): 544.938; IκBα/β-actin ratio [4]: 1.143; p-ERK1/2/ERK1/2 ratio [4]: 1.133; p-p65/p65 ratio [4]: 1.216; ERK1/2 phosphorylation [4]: not markedly attenuated; therapeutic efficacy, survival, single-animal event (MDR E. coli; event at day 2): 1; therapeutic efficacy, survival, single-animal event (MDR E. coli; event at day 4): 1; therapeutic efficacy, survival, single-animal event (MDR E. coli; event at day 6): 1; therapeutic efficacy, survival, single-animal event (LPS [5]; [14]): 1; therapeutic efficacy, survival, single-animal event (LPS [5]; [15]): 1; therapeutic efficacy, survival, single-animal event (LPS [5]; [16]): 0
2 | CSCC[C@H](NC(=O)[C@H](CCCNC(=N)N)NC(=O)[C@H](Cc1c[nH]c2ccccc12)NC(=O)[C@H](C)NC(=O)[C@H](Cc1c[nH]c2ccccc12)NC(=O)[C@H](CCCNC(=N)N)NC(=O)[C@H](Cc1c[nH]c2ccccc12)NC(=O)[C@H](C)NC(=O)[C@H](CCCCN)NC(=O)[C@H](Cc1ccccc1)NC(=O)[C@H](CCCNC(=N)N)NC(=O)[C@H](CCCNC(=N)N)NC(=O)[C@H](CCCCN)NC(=O)[C@H](CCCNC(=N)N)NC(=O)[C@H](CCCCN)NC(=O)[C@H](Cc1ccccc1)NC(=O)[C@H](Cc1ccccc1)NC(=O)[C@H](CO)NC(=O)[C@H](C)NC(=O)[C@H](CCCNC(=N)N)NC(=O)[C@@H](NC(=O)[C@H](CCCCN)NC(=O)[C@H](Cc1c[nH]c2ccccc12)NC(=O)[C@H](CCCNC(=N)N)NC(=O)CNC(=O)[C@H](CCC(N)=O)NC(=O)[C@@H](NC(=O)[C@@H](N)CCCNC(=N)N)C(C)C)C(C)C)C(=O)N[C@@H](CCCCN)C(=O)N[C@@H](CCCCN)C(=O)N[C@@H](CC(C)C)C(=O)N[C@@H](C)C(=O)N[C@@H](C)C(=O)N1CCC[C@H]1C(=O)N[C@@H](CO)C(=O)O [R7] (H-RVQGRWKVRASFFKRKRRFKAWRWAWRMKKLAAPS-OH) | 1.13 (≈ 5.06 µg/mL) | 1.13 (≈ 5.06 µg/mL) | 2.26 (≈ 10.1 µg/mL) | 2.26 (≈ 10.1 µg/mL) | -0.4331 | -0.2475 | -0.2475 | -0.1031 | 0.495 | 2.846 | 6.991 | 10.9301 | no hemolysis | 514.632 | 541.948 | 514.6 | 16.9 ~ 17.5 pg/mL | 92.5 ~ 99.3 pg/mL | 13.9 ~ 14.5 pg/mL | 43.1 ~ 46.1 pg/mL | effect on IAP activity compared to the LPS group (LPS [3]; 12 h after LPS challenge): significantly up-regulated; effect on IAP activity compared to the LPS group (LPS [3]; 24 h after LPS challenge): no significant changes; IAP levels in mice (LPS [3]; 12 h): 1301.32; IAP levels in mice (LPS [3]; 24 h): 927.606; IκBα/β-actin ratio [4]: 1.322; p-ERK1/2/ERK1/2 ratio [4]: 1.134; p-p65/p65 ratio [4]: 0.775; ERK1/2 phosphorylation [4]: not markedly attenuated; mouse survival, therapeutic treatment (MDR E. coli; MDR E. coli at LD100 i.p., then 7 μmol/kg R7 at 0.5 h and 8 h, recorded 7 d): ≤ 20%; therapeutic efficacy, survival, single-animal event (MDR E. coli; event at day 1): 1; therapeutic efficacy, survival, single-animal event (MDR E. coli; event at day 2): 1; therapeutic efficacy, survival, single-animal event (MDR E. coli; event at day 3): 1; therapeutic efficacy, survival, single-animal event (MDR E. coli; event at day 5): 1; therapeutic efficacy, survival, single-animal event (LPS [5]; [14]): 1; therapeutic efficacy, survival, single-animal event (LPS [5]; [15]): 1; therapeutic efficacy, survival, single-animal event (LPS [5]; [16]): 0
